Tests used:
Format in all cases: cell-based
[1] = tested on: Mycobacterium tuberculosis ATCC 35837; assay: Method of the proportions, Table 3 entry 1
[2] = tested on: Mycobacterium tuberculosis ATCC 35820; assay: Method of the proportions, Table 3 entry 2
[3] = tested on: Mycobacterium tuberculosis ATCC 35838; assay: Method of the proportions, Table 3 entry 3
[4] = tested on: Mycobacterium tuberculosis ATCC 35822; assay: Method of the proportions, Table 3 entry 4
[5] = tested on: Mycobacterium tuberculosis H37 RV; assay: Method of the proportions, Table 3 entry 5
[6] = tested on: Mycobacterium tuberculosis 38 strains assayed; assay: Method of the proportions, Table 3 entry 6
[7] = tested on: Mycobacterium tuberculosis 8 strains assayed; assay: Method of the proportions, Table 3 entry 7
[8] = tested on: Mycobacterium tuberculosis 2 strains assayed; assay: Method of the proportions, Table 3 entry 8
[9] = tested on: Mycobacterium tuberculosis 3 strains assayed; assay: Method of the proportions, Table 3 entry 9
[10] = tested on: Mycobacterium tuberculosis 1 strain assayed; assay: Method of the proportions, Table 3 entry 10
[11] = tested on: Mycobacterium avium-intracellulare complex 5 strains assayed; assay: Method of the proportions, Table 3 entry 11; details: for MIC: Mycobacterium avium-intracellulare, five strains, all resistant
[12] = tested on: Mycobacterium Kansasii 4 strains assayed; assay: Method of the proportions, Table 3 entry 12
[13] = concentration analysed 0.2 μg/ml
[14] = concentration analysed 25 μg/ml

Compound | Sensitivity of strain (s/R) ([1]; concentration analysed 1 μg/ml) | Sensitivity of strain (s/R) ([2]; concentration analysed 1 μg/ml) | Sensitivity of strain (s/R) ([3]; concentration analysed 1 μg/ml) | Sensitivity of strain (s/R) ([4]; concentration analysed 1 μg/ml) | Sensitivity of strain (s/R) ([5]; concentration analysed 1 μg/ml) | Sensitivity of strains (s/R) ([6]; concentration analysed 1 μg/ml) | Sensitivity of strains (s/R) ([7]; concentration analysed 1 μg/ml) | Sensitivity of strains (s/R) ([8]; concentration analysed 1 μg/ml) | Sensitivity of strains (s/R) ([9]; concentration analysed 1 μg/ml) | Sensitivity of strain (s/R) ([10]; concentration analysed 1 μg/ml) | Sensitivity of strains (s/R) ([11]; concentration analysed 1 μg/ml) | Sensitivity of strains (s/R) ([12]; concentration analysed 1 μg/ml) | also measured
4-deoxo-3,4-[(2R)-2-spiro(N-allyl-2,6-diphenyl-4-piperidil)-2,5-dihydro-1H-imidazo]rifamycin S [RFA 7M] | R (R means resistent) | s (s means sensitive) | s (s means sensitive) | s (s means sensitive) | s (s means sensitive) | s (s means sensitive) | s (s means sensitive) | s (s means sensitive) | s (s means sensitive) | s (s means sensitive) | R (R means resistent) | s (s means sensitive) | 
4-deoxo-3,4-[(2R)-2-spiro(N-buthyl-2,6-diphenyl-4-piperidil)-2,5-dihydro-1H-imidazo]rifamycin S [RFA 16M] | s (s means sensitive) | s (s means sensitive) | s (s means sensitive) | s (s means sensitive) | s (s means sensitive) | s (s means sensitive) | s (s means sensitive) | s (s means sensitive) | s (s means sensitive) | s (s means sensitive) | s/R | s (s means sensitive) | 
4-deoxo-3,4-[(2R)-2-spiro(N-homoallyl-2,6-diphenyl-4-piperidil)-2,5-dihydro-1H-imidazo]rifamycin S [RFA 15M] | R (R means resistent) | s (s means sensitive) | s (s means sensitive) | s (s means sensitive) | s (s means sensitive) | s (s means sensitive) | s (s means sensitive) | s (s means sensitive) | s (s means sensitive) | s (s means sensitive) | s/R | s (s means sensitive) | 
4-deoxo-3,4-[(2R)-2-spiro[2,6-bis(4-fluorophenyl)-4-piperidil]-2,5-dihydro-1H-imidazo]rifamycin S [RFA 5M] | s (s means sensitive) | s (s means sensitive) | s (s means sensitive) | s (s means sensitive) | s (s means sensitive) | s (s means sensitive) | s (s means sensitive) | s (s means sensitive) | s (s means sensitive) | s (s means sensitive) | s (s means sensitive) | s (s means sensitive) | 
4-deoxo-3,4-[(2R)-2-spiro[2,6-bis(4-methoxiphenyl)-4-piperidyl]-2,5-dihydro-1H-imidazo]rifamycin S [RFA 4M] | s (s means sensitive) | s (s means sensitive) | s (s means sensitive) | s (s means sensitive) | s (s means sensitive) | s (s means sensitive) | s (s means sensitive) | s (s means sensitive) | s (s means sensitive) | s (s means sensitive) | s/R | s (s means sensitive) | 
CC[C@@H](CO)NCCN[C@@H](CC)CO [EB, ethambutol] |  |  |  |  |  |  |  |  |  |  |  |  | Sensitivity of strain (s/R) ([1]; concentration analysed 5 μg/ml): s (s means sensitive); Sensitivity of strain (s/R) ([2]; concentration analysed 5 μg/ml): s (s means sensitive); Sensitivity of strain (s/R) ([3]; concentration analysed 5 μg/ml): R (R means resistent); Sensitivity of strain (s/R) ([4]; concentration analysed 5 μg/ml): s (s means sensitive); Sensitivity of strain (s/R) ([5]; concentration analysed 5 μg/ml): s (s means sensitive); Sensitivity of strains (s/R) ([6]; concentration analysed 5 μg/ml): s (s means sensitive); Sensitivity of strains (s/R) ([7]; concentration analysed 5 μg/ml): s (s means sensitive); Sensitivity of strains (s/R) ([8]; concentration analysed 5 μg/ml): s (s means sensitive); Sensitivity of strains (s/R) ([9]; concentration analysed 5 μg/ml): s (s means sensitive); Sensitivity of strain (s/R) ([10]; concentration analysed 5 μg/ml): s (s means sensitive); Sensitivity of strains (s/R) ([11]; concentration analysed 5 μg/ml): R (R means resistent); Sensitivity of strains (s/R) ([12]; concentration analysed 5 μg/ml): R (R means resistent)
NNC(=O)c1ccncc1 [IZ, isoniazid] |  |  |  |  |  |  |  |  |  |  |  |  | Sensitivity of strain (s/R) [1, 13]: s (s means sensitive); Sensitivity of strain (s/R) [2, 13]: s (s means sensitive); Sensitivity of strain (s/R) [3, 13]: s (s means sensitive); Sensitivity of strain (s/R) [4, 13]: R (R means resistent); Sensitivity of strain (s/R) [5, 13]: s (s means sensitive); Sensitivity of strains (s/R) [6, 13]: s (s means sensitive); Sensitivity of strains (s/R) [7, 13]: s (s means sensitive); Sensitivity of strains (s/R) [8, 13]: R (R means resistent); Sensitivity of strains (s/R) [9, 13]: s (s means sensitive); Sensitivity of strain (s/R) [10, 13]: R (R means resistent); Sensitivity of strains (s/R) [11, 13]: R (R means resistent); Sensitivity of strains (s/R) [12, 13]: R (R means resistent)
NC(=O)c1cnccn1 [PZ, pyrazinamide] |  |  |  |  |  |  |  |  |  |  |  |  | Sensitivity of strain (s/R) [1, 14]: s (s means sensitive); Sensitivity of strain (s/R) [2, 14]: s (s means sensitive); Sensitivity of strain (s/R) [3, 14]: s (s means sensitive); Sensitivity of strain (s/R) [4, 14]: s (s means sensitive); Sensitivity of strain (s/R) [5, 14]: s (s means sensitive); Sensitivity of strains (s/R) [6, 14]: s (s means sensitive); Sensitivity of strains (s/R) [7, 14]: R (R means resistent); Sensitivity of strains (s/R) [8, 14]: s (s means sensitive); Sensitivity of strains (s/R) [9, 14]: s (s means sensitive); Sensitivity of strain (s/R) [10, 14]: s (s means sensitive); Sensitivity of strains (s/R) [11, 14]: R (R means resistent); Sensitivity of strains (s/R) [12, 14]: R (R means resistent)
CO[C@H]1/C=C/O[C@@]2(C)Oc3c(C)c(O)c4c(c3C2=O)C2=NC3(CCN(CC(C)C)CC3)NC2=C(NC(=O)/C(C)=C\C=C\[C@H](C)[C@H](O)[C@@H](C)[C@@H](O)[C@@H](C)[C@H](OC(C)=O)[C@@H]1C)C4=O [RFB, rifabutin] | R (R means resistent) | s (s means sensitive) | s (s means sensitive) | s (s means sensitive) | s (s means sensitive) | s (s means sensitive) | s (s means sensitive) | s (s means sensitive) | s (s means sensitive) | s (s means sensitive) | R (R means resistent) | s (s means sensitive) | MIC [11]: > 1 µg/mL
CO[C@H]1/C=C/O[C@@]2(C)Oc3c(C)c(O)c4c(O)c(c(/C=N/N5CCN(C)CC5)c(O)c4c3C2=O)NC(=O)/C(C)=C\C=C\[C@H](C)[C@H](O)[C@@H](C)[C@@H](O)[C@@H](C)[C@H](OC(C)=O)[C@@H]1C [RI, rifampicin] | R (R means resistent) | s (s means sensitive) | s (s means sensitive) | s (s means sensitive) | s (s means sensitive) | s (s means sensitive) | s (s means sensitive) | s (s means sensitive) | s (s means sensitive) | s (s means sensitive) | R (R means resistent) | s (s means sensitive) | MIC [11]: > 1 µg/mL
CN[C@@H]1[C@H](O[C@H]2[C@H](O[C@H]3[C@H](O)[C@@H](O)[C@H](N=C(N)N)[C@@H](O)[C@@H]3N=C(N)N)O[C@@H](C)[C@]2(O)C=O)O[C@@H](CO)[C@H](O)[C@H]1O [SM] |  |  |  |  |  |  |  |  |  |  |  |  | Sensitivity of strain (s/R) ([1]; concentration analysed 4 μg/ml): s (s means sensitive); Sensitivity of strain (s/R) ([2]; concentration analysed 4 μg/ml): R (R means resistent); Sensitivity of strain (s/R) ([3]; concentration analysed 4 μg/ml): s (s means sensitive); Sensitivity of strain (s/R) ([4]; concentration analysed 4 μg/ml): s (s means sensitive); Sensitivity of strain (s/R) ([5]; concentration analysed 4 μg/ml): s (s means sensitive); Sensitivity of strains (s/R) ([6]; concentration analysed 4 μg/ml): s (s means sensitive); Sensitivity of strains (s/R) ([7]; concentration analysed 4 μg/ml): s (s means sensitive); Sensitivity of strains (s/R) ([8]; concentration analysed 4 μg/ml): s (s means sensitive); Sensitivity of strains (s/R) ([9]; concentration analysed 4 μg/ml): R (R means resistent); Sensitivity of strain (s/R) ([10]; concentration analysed 4 μg/ml): R (R means resistent); Sensitivity of strains (s/R) ([11]; concentration analysed 4 μg/ml): s/R; Sensitivity of strains (s/R) ([12]; concentration analysed 4 μg/ml): R (R means resistent)
NNC(=O)c1cccs1 [TCH, 2-tiophene hydrazo carboxilic acid] | R (R means resistent) | R (R means resistent) | R (R means resistent) | R (R means resistent) | R (R means resistent) | R (R means resistent) | R (R means resistent) | R (R means resistent) | R (R means resistent) | R (R means resistent) | R (R means resistent) | R (R means resistent) | 
